The source of these data is ChEMBL document CHEMBL3507680, “University of Dundee, Gates Library screen for HepG2 cell viability”.

The structures appear in SMILES notation.

The series in a line: Human HepG2 cell viability assay in 384 well format. The class given is toxicity, cell-based. On the set-up: dose 125 nL, time 70.5 hour; concentration not given beside the values. To be noted: HepG2 cells, read-out: Inhibition.
With `Cc1cc(CN2CCC(CNS(=O)(=O)c3ccccc3F)CC2)c(C)o1`, the cytotoxicity at 70.5 h is 37.7%.

As to `CCOc1ccc(S(=O)(=O)NCCc2ccc(N(C)C)cc2)cc1C`, the cytotoxicity at 70.5 h is -3.6%.

Regarding `CCOc1ccc(S(=O)(=O)NCCCc2ccc(N(C)C)cc2)cc1C`, the cytotoxicity at 70.5 h was -1.63%.

`O=C(CCc1ccccc1)NCC1CCN(Cc2ccccc2)CC1`: the cytotoxicity at 70.5 h was determined as 0.0668%.

Take `O=C(Cc1ccccc1Cl)NCC1CCN(Cc2ccsc2)CC1`: the cytotoxicity at 70.5 h is -5.31%.

For `O=C(NCc1ccccc1)NCC1CCN(Cc2ccsc2)CC1`, the cytotoxicity at 70.5 h was -7.87%.

With `O=C(NCC1CCN(c2ncccn2)CC1)c1cnccn1`, the cytotoxicity at 70.5 h is -12.6%.

For the compound `CS(=O)(=O)N1CCC(CNC(=O)C2CCC2)CC1`, the cytotoxicity at 70.5 h worked out at 40.8%.

As for `CS(=O)(=O)N1CCC(CNC(=O)C2CCCC2)CC1`, the cytotoxicity at 70.5 h is -16%.

`COC(=O)N1CCC(CNC(=O)C2CCN(S(C)(=O)=O)CC2)CC1`: the cytotoxicity at 70.5 h was -19.3%.

In the case of `COc1ncccc1C(=O)NCCn1nc(C)ccc1=O`, the cytotoxicity at 70.5 h is -8.68%.

Take `O=C(CC1CCCC1)NCCS(=O)(=O)N1CCN(c2ccccn2)CC1`: the cytotoxicity at 70.5 h was -13%.

For the compound `O=C(NCCS(=O)(=O)N1CCN(c2ncccn2)CC1)C1CC1`, the cytotoxicity at 70.5 h amounted to 16.5%.

Regarding `CCc1ccc(S(=O)(=O)NCCOc2ccc3nnc(C)n3n2)s1`, the cytotoxicity at 70.5 h is -11.7%.

Take `CC(=O)c1cccc(NC(=O)Cn2cnc(-c3ccccc3)cc2=O)c1`: the cytotoxicity at 70.5 h is -3%.

Regarding `CS(=O)(=O)N1CCN(c2ccc(Nc3ccccn3)nn2)CC1`, the cytotoxicity at 70.5 h was -6.91%.

Turning to `CC(=O)Nc1ccc(SCCCC(=O)NCC2CCCO2)nn1` (stereo unspecified), the cytotoxicity at 70.5 h was -11.3%.

On to `O=C(CCCSc1ccc(NC(=O)C2CC2)nn1)NCC1CCCO1` (stereo unspecified), for which the cytotoxicity at 70.5 h was -14.1%.

Take `COc1cc(OC)cc(C(=O)NCC(c2cccn2C)N2CCCC2)c1` (stereo unspecified): the cytotoxicity at 70.5 h is 30.6%.

As to `COc1cccc(C(=O)NCC(c2cccn2C)N2CCCC2)c1OC` (stereo unspecified), the cytotoxicity at 70.5 h turned out to be 3.39%.

As for `COc1ccc(S(=O)(=O)NCC(c2cccn2C)N(C)C)cc1F` (stereo unspecified), the cytotoxicity at 70.5 h is -8.8%.

On to `Cc1nc(NC(=O)c2c3c(nn2C2CCS(=O)(=O)C2)CCC3)sc1C` (stereo unspecified), for which the cytotoxicity at 70.5 h was found to be 16.2%.

Regarding `Cc1nnc(C2CCN(C(=O)c3cnc4ccccc4n3)CC2)s1`, the cytotoxicity at 70.5 h is -2.76%.

Regarding `O=S(=O)(NCCNc1cc(-n2cccn2)ncn1)c1cccs1`, the cytotoxicity at 70.5 h was determined as 12.1%.

Regarding `CC(C)(C)c1csc(CN2CCN(S(=O)(=O)c3cccnc3)CC2)n1`, the cytotoxicity at 70.5 h is -14.8%.

For `O=S(=O)(c1cccnc1)N1CCN(Cc2nc(-c3ccco3)cs2)CC1`, the cytotoxicity at 70.5 h is 0.0264%.

Turning to `O=C(c1ccsc1)N1CCC(c2nnc(C3CC3)o2)CC1`, the cytotoxicity at 70.5 h amounted to 28.3%.

As for `Cn1c(-c2ccccc2)nn(CCNS(=O)(=O)c2ccccc2Cl)c1=O`, the cytotoxicity at 70.5 h is 0.396%.

On to `Cn1c(-c2cccs2)nn(CCNS(=O)(=O)c2ccccc2Cl)c1=O`, for which the cytotoxicity at 70.5 h is -1.9%.

As to `COCCNC(=O)NCCS(=O)(=O)N1CCN(c2cccc(C)c2)CC1`, the cytotoxicity at 70.5 h was -12.5%.

`O=S(=O)(c1c(F)cccc1F)N1CCC(Cn2cccn2)CC1`: the cytotoxicity at 70.5 h was -11.8%.

As for `O=S(=O)(NCC1(c2cccs2)CCCC1)c1cccnc1`, the cytotoxicity at 70.5 h was -4.26%.

Turning to `O=S(=O)(NCC1(c2cccs2)CCOCC1)c1cccnc1`, the cytotoxicity at 70.5 h is -6.99%.

On to `O=C(CSC1CCCC1)N1CCN(C(=O)C2CC2c2ccccc2)CC1` (stereo unspecified), for which the cytotoxicity at 70.5 h was -3.24%.

`Cn1nnnc1SCC(=O)N1CCN(C(=O)C2CC2c2cccs2)CC1` (stereo unspecified): the cytotoxicity at 70.5 h amounted to 1.49%.

In the case of `O=C(NCc1ccc(F)cc1)NCC(O)(c1ccco1)C1CC1` (stereo unspecified), the cytotoxicity at 70.5 h stood at 6.32%.

On to `COC(=O)c1ccc(C(=O)NCC(O)c2cccn2C)cc1` (stereo unspecified), for which the cytotoxicity at 70.5 h turned out to be 48.7%.

As to `Cn1cccc1C(O)CNC(=O)COc1ccc(Cl)cc1Cl` (stereo unspecified), the cytotoxicity at 70.5 h was -12%.

Consider `O=C(NCC(O)c1ccsc1)Nc1cccs1` (stereo unspecified), for which the cytotoxicity at 70.5 h came to 25.4%.

On to `Cc1ccsc1C(O)CNC(=O)Cc1ccc(F)cc1` (stereo unspecified), for which the cytotoxicity at 70.5 h turned out to be 25%.

Consider `Cc1cc(S(=O)(=O)NCC(O)c2sccc2C)ccc1F` (stereo unspecified), for which the cytotoxicity at 70.5 h was -1.45%.

As to `COc1ccccc1OCC(=O)NCC(O)(c1cccs1)C1CC1` (stereo unspecified), the cytotoxicity at 70.5 h is -5.23%.

As for `COc1ccc(CC(C)(O)CNC(=O)c2cccs2)cc1` (stereo unspecified), the cytotoxicity at 70.5 h was -15.5%.

Regarding `COc1ccc(CC(C)(O)CNC(=O)NCc2cccs2)cc1` (stereo unspecified), the cytotoxicity at 70.5 h is -13.9%.

For `O=C(CN1C(=O)CCC1=O)NCC1(O)CCc2ccccc21` (stereo unspecified), the cytotoxicity at 70.5 h is 1.38%.

With `O=C(Cn1c(=O)oc2ccccc21)NCC1(O)CCc2ccccc21` (stereo unspecified), the cytotoxicity at 70.5 h is -6.07%.

`CC(O)(CNC(=O)c1c(F)cccc1Cl)C1CC1` (stereo unspecified): the cytotoxicity at 70.5 h is -14.4%.

For the compound `COc1ccccc1OCC(=O)NCC(C)(O)C1CC1` (stereo unspecified), the cytotoxicity at 70.5 h was -15.3%.

`O=S(=O)(NCC(O)c1cccs1)c1ccccc1Cl` (stereo unspecified): the cytotoxicity at 70.5 h was 11%.

As for `COC1CCN(C(=O)CCn2ccc(=O)[nH]c2=O)CC1`, the cytotoxicity at 70.5 h worked out at 8.52%.

Regarding `Cc1cc(C)n(CC(=O)NCc2ccccn2)n1`, the cytotoxicity at 70.5 h is -10.7%.

For `CC(C)n1cc(CN2CCCN(C(=O)CN3CCCC3=O)CC2)cn1`, the cytotoxicity at 70.5 h stood at 58%.

Turning to `CC(C)n1cc(CN2CCCN(C(=O)C(C)n3cncn3)CC2)cn1` (stereo unspecified), the cytotoxicity at 70.5 h is 3.68%.

With `Cc1cnn(CC(=O)N2CCCN(Cc3cnn(C(C)C)c3)CC2)c1`, the cytotoxicity at 70.5 h was -0.435%.

As to `CSCCC(=O)N1CCCN(Cc2cnn(C(C)C)c2)CC1`, the cytotoxicity at 70.5 h came to 34.5%.

For `CC(C)n1cc(CN2CCCN(C(=O)COC3CCCC3)CC2)cn1`, the cytotoxicity at 70.5 h was 1.39%.

For `Cc1nn(CC(C)C)c(N(C)C)c1CNCc1ccc(CO)c(F)c1`, the cytotoxicity at 70.5 h is 1.46%.

As to `CC(NCc1ccc(F)cc1)c1ccc2[nH]c(=O)[nH]c2c1` (stereo unspecified), the cytotoxicity at 70.5 h stood at 0.625%.

`Cc1cnn(C2CCCN(C(=O)CCc3cnn(C)c3)C2)c1` (stereo unspecified): the cytotoxicity at 70.5 h is -4.01%.

Take `Cc1nc(C)n(CC2CCCN(Cc3ccc4c(c3)OCCO4)C2)n1` (stereo unspecified): the cytotoxicity at 70.5 h is -1.48%.

Consider `CC(C)c1nc(C2CCCN(C(=O)CCCn3ccnc3)C2)no1` (stereo unspecified), for which the cytotoxicity at 70.5 h is -0.752%.

In the case of `CCOc1ccc(C(=O)N2CCCC2c2c(C)nn(C)c2Cl)cn1` (stereo unspecified), the cytotoxicity at 70.5 h is -1.78%.

With `Brc1cccc(-c2noc(CN3CCOCC3)n2)c1`, the cytotoxicity at 70.5 h was -2.61%.

For the compound `COc1ccc(NC(=O)C(C)n2cncn2)cn1` (stereo unspecified), the cytotoxicity at 70.5 h was -2.08%.

In the case of `CC(C(=O)NCc1ccc(N2CCCC2)nc1)n1cncn1` (stereo unspecified), the cytotoxicity at 70.5 h was -0.612%.

Consider `CC1COCCN1Cc1nc(-c2ccsc2)no1` (stereo unspecified), for which the cytotoxicity at 70.5 h was -3.54%.

Consider `CC(C(=O)Nc1ccc(N2CCCC2)nc1)n1cccn1` (stereo unspecified), for which the cytotoxicity at 70.5 h is -0.411%.

Regarding `Cc1cnn(C2CCCN(C(=O)Cc3ccc(C)s3)C2)c1` (stereo unspecified), the cytotoxicity at 70.5 h is -0.137%.

For `Cc1cnn(C2CCCN(C(=O)CCc3ccncc3)C2)c1` (stereo unspecified), the cytotoxicity at 70.5 h is -0.811%.

Regarding `CC(C)n1cc(CN2CCCN(C(=O)C(C)n3cccn3)CC2)cn1` (stereo unspecified), the cytotoxicity at 70.5 h is -2.97%.

Regarding `Cc1nc(C)n(CC2CCCN(Cc3cccc(C(N)=O)c3)C2)n1` (stereo unspecified), the cytotoxicity at 70.5 h is -1.85%.

Regarding `Cc1nc(C)n(CC2CCCN(Cc3cc(C#N)ccc3F)C2)n1` (stereo unspecified), the cytotoxicity at 70.5 h is 0.508%.

Turning to `CC(C)n1cc(CN2CCCN(C(=O)C3CCCN3C)CC2)cn1` (stereo unspecified), the cytotoxicity at 70.5 h was -3.1%.

Regarding `Cc1nn(C)c(C)c1C1CCCN1C(=O)c1ccc2c(c1)OCCO2` (stereo unspecified), the cytotoxicity at 70.5 h was -7.1%.

As for `CC(C)c1nc(C2CCCN(C(=O)CCc3cscn3)C2)no1` (stereo unspecified), the cytotoxicity at 70.5 h was -2.82%.

In the case of `Cc1nn(C)c(Cl)c1C1CCCN1C(=O)c1ccc(C(N)=O)cn1` (stereo unspecified), the cytotoxicity at 70.5 h came out at 54.9%.

For the compound `Cc1nn(C)c(Cl)c1C1CCCN1C(=O)c1ccncc1` (stereo unspecified), the cytotoxicity at 70.5 h was determined as 0.652%.

`CCOc1ccc(CNC(C)c2ccc3[nH]c(=O)[nH]c3c2)cc1` (stereo unspecified): the cytotoxicity at 70.5 h was 1.32%.

Consider `Cc1ccccc1C1(C(=O)NCCN2CCC(C)CC2)CCOCC1`, for which the cytotoxicity at 70.5 h came to 17.6%.

Turning to `COc1ccccc1C1(C(=O)NCCN2CCCCC2)CCOCC1`, the cytotoxicity at 70.5 h was found to be 15.9%.

In the case of `CC(C)(C)c1nnc(CN2CCCC2Cn2cncn2)o1` (stereo unspecified), the cytotoxicity at 70.5 h was -11.3%.

Take `Cc1cccc(C(=O)NCc2cccnc2N(C)C)n1`: the cytotoxicity at 70.5 h is 1.42%.

As for `Cc1ccc(N2CCCC(NCc3nnc(-c4ccco4)o3)C2)nn1` (stereo unspecified), the cytotoxicity at 70.5 h is -13.2%.

Take `Cc1ncsc1C(=O)N(Cc1ccccc1)C1CC1`: the cytotoxicity at 70.5 h was -19.8%.

Take `c1ccc(-c2nnc(CNC3CCCN(c4cccnn4)C3)o2)cc1` (stereo unspecified): the cytotoxicity at 70.5 h is -16.9%.

For the compound `COc1ncccc1CNC(=O)c1cc(Cl)ccn1`, the cytotoxicity at 70.5 h is -8.01%.

Turning to `O=C(O)c1cccc(S(=O)(=O)N2CCOc3ccccc32)c1`, the cytotoxicity at 70.5 h was -12.8%.

Regarding `CN(C)c1cc(CNC(=O)Nc2ccc(N3CCCC3)nc2)ccn1`, the cytotoxicity at 70.5 h is 1.53%.

On to `CCC(NC(=O)C1CC1)c1ccccc1OCC(=O)N1CCCC1` (stereo unspecified), for which the cytotoxicity at 70.5 h was -6.4%.

Regarding `CCC(NC(=O)COC)c1ccccc1OCC(=O)N1CCCC1` (stereo unspecified), the cytotoxicity at 70.5 h was -4.2%.

As for `COc1ncccc1CNC(=O)c1ccc(C)[nH]c1=O`, the cytotoxicity at 70.5 h was 12.6%.

`CN(C)c1ccc(CNC(=O)Nc2ccc(S(C)(=O)=O)nc2)cc1`: the cytotoxicity at 70.5 h is -7.69%.

For the compound `Cc1cccc(NC(=O)C2CSCN2C(=O)c2cnccn2)c1C` (stereo unspecified), the cytotoxicity at 70.5 h was -7.92%.

As to `Cc1cnn(C2CCCN(C(=O)c3ccc(-n4cnnn4)cc3)C2)c1` (stereo unspecified), the cytotoxicity at 70.5 h came out at 0.981%.

Regarding `Cc1ccc(NC(=O)C2CSCN2C(=O)c2cccnc2)c(C)c1` (stereo unspecified), the cytotoxicity at 70.5 h came out at 6.06%.

For `c1ccc(-n2ccc(CNC3CCc4ncnn4C3)n2)cc1` (stereo unspecified), the cytotoxicity at 70.5 h was -5.75%.

Take `c1ccc(Cc2nnc(CN3CCCC(Cn4cncn4)C3)o2)cc1` (stereo unspecified): the cytotoxicity at 70.5 h was -13.3%.

Consider `Cc1ccc(-c2noc(CN3CCn4c(nnc4C4CC4)C3)n2)cc1`, for which the cytotoxicity at 70.5 h is -16%.

For the compound `c1cncc(-c2noc(CN3CCn4c(nnc4C4CC4)C3)n2)c1`, the cytotoxicity at 70.5 h was -1.9%.

Consider `Cc1noc(C)c1S(=O)(=O)NC(=O)COc1cccc(C(C)C)c1`, for which the cytotoxicity at 70.5 h is -2.21%.

As for `Cc1noc(C)c1S(=O)(=O)NC(=O)COc1ccc(C(C)C)cc1`, the cytotoxicity at 70.5 h is -9.11%.
